In BindingDB's records for doi:10.1021/jm100809g (F. Hoffmann-La Roche, 2011):

Target: Carnitine O-palmitoyltransferase 1, liver isoform (Rattus norvegicus) (UniProt P32198)
Experiment: Maximal inhibition of rat CPT1A

Carnitine O-palmitoyltransferase 1, liver isoform (Rattus norvegicus), sequence (P32198 whole entry, looked up, canonical isoform): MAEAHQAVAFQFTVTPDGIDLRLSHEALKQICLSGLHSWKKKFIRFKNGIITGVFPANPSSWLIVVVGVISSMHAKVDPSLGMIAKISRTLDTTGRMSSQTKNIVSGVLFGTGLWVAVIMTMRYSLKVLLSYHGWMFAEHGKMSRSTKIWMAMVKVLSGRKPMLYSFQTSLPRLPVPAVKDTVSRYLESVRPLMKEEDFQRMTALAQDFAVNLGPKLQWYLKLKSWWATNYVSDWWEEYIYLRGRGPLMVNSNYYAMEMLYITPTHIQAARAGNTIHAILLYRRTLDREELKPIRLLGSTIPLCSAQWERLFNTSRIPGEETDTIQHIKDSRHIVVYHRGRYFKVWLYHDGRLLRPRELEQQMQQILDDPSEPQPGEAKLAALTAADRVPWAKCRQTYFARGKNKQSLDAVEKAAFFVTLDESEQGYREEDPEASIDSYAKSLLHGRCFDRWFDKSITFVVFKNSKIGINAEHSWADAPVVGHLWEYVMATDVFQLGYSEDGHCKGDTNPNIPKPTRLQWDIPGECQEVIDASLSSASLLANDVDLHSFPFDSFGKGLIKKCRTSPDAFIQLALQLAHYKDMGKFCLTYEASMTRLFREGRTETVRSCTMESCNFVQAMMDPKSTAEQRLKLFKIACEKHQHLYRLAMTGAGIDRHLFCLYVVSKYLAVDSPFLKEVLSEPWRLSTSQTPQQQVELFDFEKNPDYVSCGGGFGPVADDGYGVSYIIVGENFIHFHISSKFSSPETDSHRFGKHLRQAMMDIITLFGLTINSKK

O=C(COc1ccccc1)N1CCCC[C@@H]1c1nc(-c2ccccn2)cs1 and O=C(NCc1cccs1)c1nn(Cc2cccc(C(F)(F)F)c2)c2ccccc12 are within 1.5-fold of each other in IC50: 130 nM for the first, 150 nM for the second.

Going from C[N+](C)(C)C[C@H](N)CC(=O)[O-] to CCCCCCCCCCCCCCNC(=O)N[C@H](CC(=O)[O-])C[N+](C)(C)C [[3-Carboxy-2-(3-tetradecyl-ureido)-propyl]-trimethyl-ammonium], the IC50 falls from 27300 nM to 1450 nM (19-fold).

Going from COc1ccc(Cl)cc1S(=O)(=O)N1CC(C(=O)O)Oc2ccc(C(=O)Nc3cccc(F)c3)cc21 (configuration not stated) to COc1ccc(Cl)cc1S(=O)(=O)N1CCc2ccc(C(=O)Nc3ccc(C(=O)O)cc3)cc21, the IC50 rises from 30 nM to 55 nM (1.8-fold).

COc1ccc(C)cc1S(=O)(=O)N1CCCc2ccc(C(=O)Nc3ccc(CC(=O)O)cc3)cc21 gave an IC50 of 180 nM.
